Among the data in patent US20160354429A1, “Use of Melanocortins to Treat Insulin Sensitivity” (Ipsen Pharma S.A.S., priority 2007, published 2016) are Ki and EC50 values, retold here.

The target of one assay is T1, hMC4-R (Homo sapiens, UniProt P32245).
T1 construct: expressed in transfected cells
As to the kind of experiment: Radioligand binding assay, hMC4-R. The note with it: competition with [125I]-NDP-α-MSH, CHO-K1 cell membranes.

A further assay concerns the target T2, hMC1-R (Homo sapiens, UniProt Q01726).
T2 construct: expressed in transfected cells
The assay is described as follows: Radioligand binding assay, hMC1-R. The note with it: competition with [125I]-NDP-α-MSH, CHO-K1 cell membranes.

A further assay deals with T3, hMC3-R (Homo sapiens, UniProt P41968).
T3 construct: expressed in transfected cells
The assay is described as follows: Radioligand binding assay, hMC3-R. The note with it: competition with [125I]-NDP-α-MSH, CHO-K1 cell membranes.

Assay [1] deals with T4, hMC5-R (Homo sapiens, UniProt P33032).
T4 construct: expressed in transfected cells
The assay is described as follows: Radioligand binding assay, hMC5-R. The note with it: competition with [125I]-NDP-α-MSH, CHO-K1 cell membranes. On the procedure: Cellular membranes used for the in vitro receptor binding assays were obtained from transgenic CHO-K1 cells stably expressing hMC-R receptor subtypes 1, 3, 4 or 5. […] The pellets were resuspended in the same buffer and centrifuged at 50,000 g for 10 minutes at approximately 4° C. The washed pellets containing the cellular membranes were stored at approximately −80° C.
Filters were washed three times with 50 mM Tris-HCl at pH 7.4 at a temperature of approximately 0-4° C. and then assayed for radioactivity using a Packard Topcount® scintillation counter. Binding data were analyzed by computer-assisted non-linear regression analysis (XL fit; IDBS).

Assay [2] has as its target T4, hMC5-R. As to the kind of experiment: cyclic AMP bioassay, hMC5-R. The assay is classed as cell-based.
Method: Intracellular cyclic AMP (cAMP) levels were determined by an electrochemiluminescence (ECL) assay (Meso Scale Discovery®, Gaithersburg, Md.; referred to hereinafter as MSD). […] Transgenic CHO-K1 cells stably expressing hMC receptor subtypes 1, 3, 4 or 5 were dispensed at a density of approximately 7,000 cells/well in 384-well Multi-Array® plates (MSD) containing integrated carbon electrodes and coated with anti-cAMP antibody. Increasing concentrations of the test compounds were added and the cells were incubated for approximately 40 minutes at approximately 37° C. […] At the end of the second incubation period read buffer (Tris-buffered solution containing an ECL co-reactant and Triton X-100 at ph 7.8) was added and the cAMP levels in the cell lysates were immediately determined by ECL detection with a Sector Imager 6000 Reader® (MSD). Data were analyzed using a computer-assisted non-linear regression analysis (XL fit; IDBS) and reported as either an EC50 value or a Kb value.

Bridge positions count the residues as written; N and C are the ends. Square brackets hold non-standard residues; d marks the D form. Peptide text beside a SMILES is read from it. GABA = NCCCC(=O)O

T4 sequence (P33032 whole entry): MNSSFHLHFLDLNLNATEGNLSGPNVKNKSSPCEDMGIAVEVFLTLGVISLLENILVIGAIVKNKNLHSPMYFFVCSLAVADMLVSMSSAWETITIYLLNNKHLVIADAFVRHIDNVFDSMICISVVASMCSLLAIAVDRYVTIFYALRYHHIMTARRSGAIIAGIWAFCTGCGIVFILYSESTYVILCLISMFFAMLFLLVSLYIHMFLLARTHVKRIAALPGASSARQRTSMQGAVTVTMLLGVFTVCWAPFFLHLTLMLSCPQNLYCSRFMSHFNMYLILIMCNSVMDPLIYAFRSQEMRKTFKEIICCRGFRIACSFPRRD
T2 sequence (Q01726 whole entry): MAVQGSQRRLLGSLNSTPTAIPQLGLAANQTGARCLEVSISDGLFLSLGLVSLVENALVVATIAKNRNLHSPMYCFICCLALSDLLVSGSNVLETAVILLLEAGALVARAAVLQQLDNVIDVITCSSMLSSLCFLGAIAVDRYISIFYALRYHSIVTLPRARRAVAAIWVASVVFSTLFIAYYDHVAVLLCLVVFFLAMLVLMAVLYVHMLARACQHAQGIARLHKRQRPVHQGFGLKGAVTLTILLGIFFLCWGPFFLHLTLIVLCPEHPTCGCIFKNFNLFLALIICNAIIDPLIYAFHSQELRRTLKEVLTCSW
T3 sequence (P41968 whole entry): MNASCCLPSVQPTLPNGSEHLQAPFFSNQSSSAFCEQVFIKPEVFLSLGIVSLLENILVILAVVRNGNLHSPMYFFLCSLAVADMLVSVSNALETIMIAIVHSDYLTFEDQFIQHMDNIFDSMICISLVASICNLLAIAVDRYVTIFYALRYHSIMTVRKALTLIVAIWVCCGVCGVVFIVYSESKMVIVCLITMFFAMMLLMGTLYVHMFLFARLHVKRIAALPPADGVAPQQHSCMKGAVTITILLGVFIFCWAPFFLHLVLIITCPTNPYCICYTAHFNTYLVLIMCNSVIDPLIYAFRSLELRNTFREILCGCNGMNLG
T1 sequence (P32245 whole entry): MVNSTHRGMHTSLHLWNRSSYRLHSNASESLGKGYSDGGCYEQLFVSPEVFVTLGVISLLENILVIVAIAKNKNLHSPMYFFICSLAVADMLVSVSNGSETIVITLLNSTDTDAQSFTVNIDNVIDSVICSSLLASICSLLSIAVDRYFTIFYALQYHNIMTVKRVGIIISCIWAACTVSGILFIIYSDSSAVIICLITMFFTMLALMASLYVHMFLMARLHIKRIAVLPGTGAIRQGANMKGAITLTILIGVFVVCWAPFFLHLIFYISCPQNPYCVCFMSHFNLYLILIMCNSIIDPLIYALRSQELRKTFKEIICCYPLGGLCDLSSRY

By Ki is commonly meant a measure of affinity in units of concentration, obtained from inhibition or displacement. A low value points to tighter binding. As to `CC(=O)N[C@@H](Cc1ccccc1)C(=O)N[C@H]1CSSC[C@@H](C(N)=O)NC(=O)CCCNC(=O)[C@H](Cc2c[nH]c3ccccc23)NC(=O)[C@H](CCCNC(=N)N)NC(=O)[C@@H](Cc2ccccc2)NC(=O)[C@H](Cc2c[nH]cn2)NC1=O` [Ac-Phe-c(Cys-His-D-Phe-Arg-Trp-Gaba-Cys)-NH2] (Ac-FCH[dF]RW[GABA]C-NH2; disulfide 2-8), the Ki on hMC4-R was found to be 2.13 nM; on hMC1-R, 0.254 nM; on hMC3-R, 18.5 nM; on hMC5-R [1], 0.714 nM.
In the case of `CCCC[C@H](NC(C)=O)C(=O)N[C@H]1CSSC[C@@H](C(N)=O)NC(=O)CCNC(=O)[C@H](Cc2c[nH]c3ccccc23)NC(=O)[C@H](CCCNC(=N)N)NC(=O)[C@@H](Cc2ccccc2)NC(=O)[C@H](Cc2c[nH]cn2)NC(=O)[C@@H](C)NC1=O` [Ac-Nle-c(Cys-D-Ala-His-D-Phe-Arg-Trp-β-Ala-Cys)-NH2], on hMC1-R, the affinity corresponds to a Ki of 0.995 nM. That is a sub-nanomolar value.
By EC50 is commonly meant the midpoint of the concentration-response curve. High values mean a less potent agent, low ones a more potent agent. For the compound `CC(=O)N[C@@H](CCCNC(=N)N)C(=O)N[C@H]1CSSC(C)(C)[C@@H](C(N)=O)NC(=O)[C@H](Cc2c[nH]c3ccccc23)NC(=O)[C@H](CCCNC(=N)N)NC(=O)[C@@H](Cc2ccccc2)NC(=O)[C@H](Cc2c[nH]cn2)NC(=O)[C@@H](C)NC1=O` [Ac-Arg-c(Cys-D-Ala-His-D-Phe-Arg-Trp-Pen)-NH2], the EC50 on hMC5-R [2] was ≥ 10000 nM.
